Our source for the melting point values is patent US20060173022A1, “Heterocyclic amides, method for the production thereof, substances containing said heterocyclic amides, and use thereof as pesticides” (Bayer CropScience GmbH, priority 2003, published 2006).

The structures appear in SMILES notation.

The compound `CO/N=C/CCNC(=O)c1cnccc1C(F)(F)F` [Example I, N-(4-Trifluoromethylnicotinoyl)-3-aminopropionaldehyde O-methyl oxime] came in with a melting point of 80 to 82 °C.

Broadly, the melting point is the temperature, or range, at which the solid turns liquid.
